{
  "source": "patent US20120301551A1",
  "about": "“COMPOUNDS AND COMPOSITIONS FOR TREATING NEURONAL DEATH OR NEUROLOGICAL DYSFUNCTION” (Neurotech Pharmaceuticals Co., Ltd., priority 2005, published 2012)",
  "assay_type_in_all_cases": "in vivo, mouse",
  "key": {"[1]": {"tested_on": "APPswe/PS1deltaE9 double transgenic mice", "assay": "open field activity in APPswe/PS1deltaE9 double transgenic mice", "conditions": "25 mg/kg/day chemical 01 or 62.5 mg/kg/day ibuprofen for 14.5 months (3~17.5 months)", "experimental": "After administration of drug for 14.5 months, Open field activity test was performed to evaluate locomotor activity and exploratory behavior. 4×4 of scale marks were drawn in white acryl box having a size of 60 cm×60 cm×35 cm (width×length×height) to make sixteen squares. Four squares in the center became center zone and twelve squares around the center zone became peripary zone. Mice were laid into transparent acryl tube (diameter: about 3.5 inches) laid at the left corner of the acryl box for 30 seconds. After 30 seconds, acryl tube was removed to make mouse free. Experiment was once performed for each mouse for 5 minutes. The distance traveled in the open field was recorded (mean±SEM, n=3-5).\n(§1) 17.5 month-old APPswe/PS1deltaE9 double transgenic mice were fed chow alone (saline only), or containing 25 mg/kg/day of chemical—01, for […] (3˜17.5 month).\nOpen field activity was used to evaluate locomotor activity and exploratory behavior. The distance traveled in the open field was recorded and performance was analyzed after the testing took place."}, "[2]": {"tested_on": "APPswe/PS1deltaE9 double transgenic mice", "assay": "brain Aβ40/Aβ42 levels in APPswe/PS1deltaE9 double transgenic mice (ELISA)", "conditions": "25 mg/kg/d chemical 01 or 62.5 mg/kg/day ibuprofen for 14.5 months", "experimental": "SDS-soluble/insoluble Aβ40 or Aβ42 levels were analyzed by colorimetric sandwich ELISA kit (BIOSOURCE, Camarillo, Calif.)."}, "[3]": {"tested_on": "APPswe/PS1deltaE9 double transgenic mice", "assay": "Morris water maze in APPswe/PS1deltaE9 double transgenic mice", "conditions": "25 mg/kg/day chemical 01 or 62.5 mg/kg/day ibuprofen for 14.5 months (3~17.5 months)", "experimental": "After administration of 14.5 months, the cognitive function was analyzed by Morris water maze test like example 10-3-1 (mean±SEM, n=3-5).\nas §1\nThe cognitive function was analyzed by Morris water maze test. Mice ware trained to perform a hidden platform task in the Morris water maze. The latency to find the platform was recorded for each mouse."}},
  "data": [
    {"smiles": "CC(C)Cc1ccc(C(C)C(=O)O)cc1", "note": "(stereo not drawn) [ibuprofen, reference compound]", "values": [
      {"measurement": "open field activity (distance traveled)", "setting": "[1]", "value": "non-significant trend"},
      {"measurement": "SDS-soluble/insoluble Aβ40 or Aβ42 levels, in words", "setting": "[2]", "value": "did not reduce"},
      {"measurement": "escape latency / cognitive function (Morris water maze)", "setting": "[3]", "value": "did not improved cognitive function"}
    ]}
  ]
}
